In publication PMC12147183, “Lacritin cleavage-potentiated targeting of iron - respiratory reciprocity promotes bacterial death” (The Journal of Biological Chemistry, 2025):
≈ marks a conversion by molar mass, not a printed value. Peptide text beside a SMILES is read from it.

What was measured:
P. aeruginosa PA14 [1] = assay: N-104 sub-MIC generational resistance assay; assay type: cell-based, Pseudomonas aeruginosa; settings: PA14 treated at subminimal inhibitory and minimal inhibitory concentrations, n = 2
Method: Supplementary Fig. 2. Thirty generations of PA14 fail to develop stable N-104 resistance together with biological replicates related to Fig. 2. A, Schematic of the N-104 sub-minimal inhibitory concentration (‘sub-MIC’) N-104 resistant assay. […] . This process was repeated through 30 generations. B, Generational fold change of N-104 MIC over 30 generations. The original sub-MIC N-104 concentration was 2 µM, for which there was no initial sub-MIC change ([mean], n = 2, *p<0.05; ns, not significant [Friedman ANOVA with Dunn's multiple comparisons test]). C, Biological replicates of the N-104 sub-MIC resistant assay. Scale bar is 2 mm. […] Scale bar is 2 mm.

thrombin (F2) = thrombin (F2) (Homo sapiens, UniProt P00734); assay: Affinity pulldown of human tears on peptide columns; assay type: binding; settings: pooled human basal tears, 300 mOsm/l, 0.5 M KCl eluant, anti-F2 immunodetection
Method: Studies in this work abide by the Declaration of Helsinki principles. As per UVA IRB protocol 18,592, consented normal human volunteers were subjected to 0.5% proparacaine anesthesia of the eye to minimize reflex tearing. Human basal tears were then wicked for 5 min onto filter paper-like Schirmer strips. Those that had wicked a distance of at least 12 mm were subjected to 4 °C elution with 10 mM Na2HPO4, 1.8 mM KH2PO4, 2.7 mM KCl, 137 mM NaCl (pH 7.2) for a final total pooled tear volume of 170 μl. The pool was diluted five-fold in 10 mM Na2HPO4, 1.8 mM KH2PO4, 2.7 mM KCl, and 137 mM NaCl (pH 7.2) with protease inhibitors and subjected to end-over-end mixing with a 100 μl precolumn of Pierce Agarose followed by equal division by protein concentration into each of 100 μl of N-104 or C-95 columns. The solution was mixed for 5 h at 4 °C. Columns were subjected to washing with 10 mM Na2HPO4, 1.8 mM KH2PO4, 2.7 mM KCl, and 137 mM NaCl (pH 7.2) containing the same protease inhibitors followed by elution using KCl (0.3, 0.5, and 1.0 M KCl) in the same buffer. The 0.5 M KCl eluate was submitted for mass spectrometric sequencing by UVA's Biomolecular Analysis Facility, as previously noted. The acquired data were analyzed by database searching using the Sequest search algorithm against UniProt H. sapiens. […]

[2] = Surface plasmon resonance on chip-supported Gram-positive model membrane; assay type: binding; settings: highest N-104 concentration, PC:PG Gram-positive model membrane
PA14 fed to C. elegans = assay type: in vivo, Caenorhabditis elegans
Method: L1 stage C. elegans worms on Nematode Growth Medium (NGM) plates with E. coli OP50 as a food source were cultivated at room temperature in a humidified chamber until maturation into sterile young adults ([84]), carefully washed off with M9 minimal salts and then collected by pelleting (1200g, 2 min). […] After 3 days, bacteria and debris were removed leaving 50 μl per well of worms to which 50 μl of 6 μM SYTOX Orange was added in M9 minimal salts. The next day, images were captured using both transmission and epifluorescence (excitation/detection = 535/610 nm) on an AMG EVOS FL AMF-4301 fluorescence microscope (Thermo Fisher Scientific).

P. aeruginosa PA14 [3] = tested on: P. aeruginosa PA14
Method: After overnight incubation at 37 °C, plates were analyzed on a ChemiDoc XRS (Bio-Rad).

## CC(=O)N[C@@H](C)C(=O)N[C@@H](CCC(N)=O)C(=O)N[C@@H](CCCCN)C(=O)N[C@@H](CC(C)C)C(=O)N[C@@H](CC(C)C)C(=O)N[C@@H](CCCCN)C(=O)N[C@@H](CCCCN)C(=O)N[C@@H](Cc1ccccc1)C(=O)N[C@@H](CO)C(=O)N[C@@H](CC(C)C)C(=O)N[C@@H](CC(C)C)C(=O)N[C@@H](CCCCN)C(=O)N1CCC[C@H]1C(=O)N[C@@H](Cc1c[nH]c2ccccc12)C(=O)N[C@@H](C)C(=O)O [N-104] (Ac-AQKLLKKFSLLKPWA-OH)
P. aeruginosa PA14 [1]
  development of resistance over 30 successive generations: No stable resistance was apparent
Thrombin (F2)
  binding of tear thrombin to immobilized peptide: binds thrombin
[2]
  SPR response after buffer wash versus baseline: slightly below baseline
PA14 fed to C. elegans; 0 or 50 μM N-104, 5 h, 10^7 cfu/ml, n = 3
  N-104 resistance of PA14 ΔyaiW in C. elegans survival assay: partially resistant
PA14 fed to C. elegans; 100 μM N-104 without PA14, 3 days
  viability of C. elegans fed N-104 alone: did not affect viability
PA14 fed to C. elegans; PA14 10^7 cfu/ml treated 5 h with 100 μM peptide (legend; method says 50 μM), fed to 50 worms for 3 days, SYTOX Orange, n = 3
  survival of C. elegans fed peptide-treated PA14: fully survived
P. aeruginosa PA14 [3]; 0, 2 or 5 μM N-104, 10^6 cfu/ml, n = 3
  N-104 resistance of PA14 ΔyaiW in CFU assay: partially resistant
P. aeruginosa PA14 [3]; 0 to 400 μM N-104 in 30 or 300 mOsm/l phosphate buffer, 8 h, n = 3
  bactericidal efficacy versus osmolarity: diminishes as osmolarity increases
P. aeruginosa PA14 [3]; PA14, 8 h
  minimum inhibitory concentration (MIC): 2 µM (≈ 3.63 µg/mL)
